pEC50: −log10 of the molar value.
Tests used:
[1] = target: T1, hPPARalpha (Homo sapiens, UniProt Q07869); assay: PPAR activation: Gal4-hPPARα chimera luciferase transactivation in COS-7 cells, Method 1; assay type: cell-based; conditions: COS-7, 24 h; for Emax: maximum percentage response relative to the reference phenofibric acid, read-out: hPPARalpha % max
T1 construct: expressed in transfected cells; host or cells: COS-7 (monkey kidney fibroblasts)
T1 sequence (Q07869 239-466 limits assumed): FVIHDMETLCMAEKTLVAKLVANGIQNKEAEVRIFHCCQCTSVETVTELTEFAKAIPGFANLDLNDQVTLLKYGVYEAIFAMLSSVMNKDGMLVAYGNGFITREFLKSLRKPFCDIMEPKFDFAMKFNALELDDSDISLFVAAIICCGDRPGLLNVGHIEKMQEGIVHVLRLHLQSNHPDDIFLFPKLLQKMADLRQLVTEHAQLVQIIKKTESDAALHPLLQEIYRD
Outline: (§1)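 COS-7 cells transiently transfected with Gal4 DBD–human PPAR LBD (DEF domain) chimeras plus Gal4(RE)_TkpGL3 luciferase reporter (1/10 ratio). Compounds applied 24 h at 37 °C in serum-free medium at doses between 10^−5 and […]; luciferase read after lysis, EC50 derived.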

[2] = target: T2, hPPARgamma (Homo sapiens, UniProt P37231); assay: PPAR activation: Gal4-hPPARγ chimera luciferase transactivation in COS-7 cells, Method 1; assay type: cell-based; conditions: COS-7, 24 h; for Emax: maximum percentage response relative to the reference rosiglitazone, read-out: hPPARgamma % max
T2 construct: expressed in transfected cells; host or cells: COS-7 (monkey kidney fibroblasts)
T2 sequence (P37231 238-503 limits assumed): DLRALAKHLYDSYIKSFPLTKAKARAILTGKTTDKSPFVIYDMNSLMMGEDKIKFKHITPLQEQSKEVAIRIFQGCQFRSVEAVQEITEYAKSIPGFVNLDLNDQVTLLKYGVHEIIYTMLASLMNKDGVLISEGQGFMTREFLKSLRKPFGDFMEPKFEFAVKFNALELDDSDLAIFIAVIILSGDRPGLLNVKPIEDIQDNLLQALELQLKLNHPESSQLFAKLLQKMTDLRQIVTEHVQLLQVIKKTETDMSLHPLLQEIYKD
Outline: as §1

[3] = system: MCP1 and MMP9 genes in human monocytes (THP1); assay: Expression of MCP1 and MMP9 in human monocytes stimulated with PMA, quantitative RT-PCR; assay type: cell-based; conditions: 24 h
Description: The antiinflammatory effects of the compounds according to the invention were evaluated by measuring the secretion and expression of macrophages chemoattractant protein (MCP1) and of matrix metalloproteinase 9 (MMP9) by monocytes treated with the compounds according to the invention for 24 hours and stimulated with PMA (phorbol 12-myristate 13-acetate, which causes an inflammatory response of the cells). The more the amount of MCP1 secreted is reduced, the greater the inhibitory action of the compounds according to the invention on the inflammatory reaction. Similarly, the more the expression of the genes coding for MCP1 and MMP9 is inhibited, the greater the antiinflammatory effect of the compounds according to the invention.
The THP1 human monocyte line (obtained from ATCC) is cultivated in RPMI1640 medium with addition of 25 mM Hepes (Gibco; 42401-018), 1% glutamine (Gibco; 25030-24) 1% penicillin/streptomycin (Biochrom AG; A 2213) and 10% decomplemented fetal calf serum (FCS. Gibco; 10270-106).
The cells are seeded on 24-well plates (Primaria BD Falcon) at a density of 8.70·10^5 cells/well in the treatment medium (same composition as the culture medium but with 0.2% of decomplemented fetal calf serum) and in the presence of 5 ng/mL of phorbol 12-myristate 13-acetate (PMA) for inducing the inflammatory response.
The compounds according to the invention were tested at 0.1, 0.3 and/or at 1 μm, and dissolved in dimethylsulfoxide (DMSO, Fluka; 41640). The cells are treated for 24 h at 37° C., 5% CO2. The effect of the compound according to the invention is compared with the effect of DMSO alone.
After treatment, the total RNA is extracted from the cells using the NucleoSpin® 96 RNA kit (Macherey Nagel, Hoerdt, France) following the manufacturer's instructions.
1 μg of total RNA (quantified based on the reading of the UV spectrophotometer) was then reverse-transcribed to complementary DNA by reaction for 1 hour at 37° C. in a total volume of 30 μl containing buffer 1× (Invitrogen), 1.5 mM of DTT, 0.18 mM of dNTPs (Promega), 200 ng of pdN6 (Amersham), 30 U of RNase inhibitor (Promega) and 1 μl of MMLV-RT (Invitrogen).
The quantitative PCR experiments were carried out using the MyiQ Single-Color Real-Time PCR Detection System (Biorad, Marnes-la-Coquette, France) and were performed using the iQ SYBR Green Supermix kit following the supplier's recommendations, in 96-well plates, on 5 μl of diluted reverse-transcription reaction mixture with a hybridization temperature of 60° C. Primer pairs specific to the MCP1 and MMP9 genes under investigation were used:
The amount of fluorescence emitted is directly proportional to the amount of complementary DNA present at the start of the reaction and amplified during PCR. […] The relative expression levels of each target are thus determined using the efficacy curves obtained with the points in the range.
The levels of expression of the genes of interest were then normalized, […] relative to the level of expression of the reference gene 36B4 (whose specific primers are: sense primer: 5′-[…]-3′ (SEQ ID No. 19) and antisense primer: 5′-[…]-3′ (SEQ ID No. 20)). The induction factor, i.e. the ratio of the relative signal (induced by the compound according to the invention) to the mean of the relative values of the control group, was then calculated. […]

| pEC50 [1] | Emax [1] [%] | Emax [2] [%] | melting point [°C] | pEC50 [2] | SMILES | expression of MCP1 in human monocytes ([3]; at 1 μm) | expression of MMP9 in human monocytes ([3]; at 1 μm) | expression of MCP1 in human monocytes ([3]; at 0.1 and 0.3 μm) |
| --- | --- | --- | --- | --- | --- | --- | --- | --- |
| 6.90 | 50 | 38 | 54 to 56 | – | CC(C)(Oc1ccc(CCC(O)c2ccc(-c3ccc(C(F)(F)F)cc3)s2)c(Cl)c1Cl)C(=O)O (centres unmarked) [Compound 4, 2-(2,3-dichloro-4-(3-hydroxy-3-(5-(4-(trifluoromethyl)phenyl)thien-2-yl)propyl)phenoxy)-2-methylpropanoic acid] | – | – | – |
| 6.54 | 39 | 55 | 99 to 101 | 5.93 | CC(C)(Oc1ccc(CCC(=O)c2cc(-c3ccc(C(F)(F)F)cc3)cs2)c(Cl)c1Cl)C(=O)O [Compound 11, 2-(2,3-dichloro-4-(3-oxo-3-(4-(4-(trifluoromethyl)phenyl)thien-2-yl)propyl)phenoxy)-2-methylpropanoic acid] | significant decrease | significant decrease | – |
| 7.28 | 43 | 11 | 153 to 154 | 7.22 | CC(C)(Oc1ccc(CCC(=O)c2ccc(-c3ccc(C(F)(F)F)cc3)s2)c(Cl)c1Cl)C(=O)O [Compound 2, 2-(2,3-dichloro-4-(3-oxo-3-(5-(4-(trifluoromethyl)phenyl)thien-2-yl)propyl)phenoxy)-2-methylpropanoic acid] | – | – | significant decrease |
| – | – | – | 46 to 48 | – | CC(C)(Oc1ccc(CCC(OCc2ccccc2)c2ccc(-c3ccc(C(F)(F)F)cc3)s2)c(Cl)c1Cl)C(=O)O (centres unmarked) [Compound 7, 2-(4-(3-(benzyloxy)-3-(5-(4-(trifluoromethyl)phenyl)thien-2-yl)propyl)-2,3-dichlorophenoxy)-2-methylpropanoic acid] | significant decrease | significant decrease | – |

Reference: patent publication US8088819B2, “Derivatives of substituted 3-phenyl-1-(phenylthienyl)propan-1-ones and of 3-phenyl-1-(phenylfuranyl) propan-1-ones, preparation and use” (priority 2006, dated 2012)
